The assay has as its system Cytokinin-dependent tobacco callus Nicotiana tabacum L. cv. Wisconsins 38. Description: Tobacco callus bioassay for cytotoxicity (herbicidal activity). In kind it is cell-based. In short, it runs like this:
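Compounds were prepared in DMSO as a 10^−3 M stock in water. Growth inhibition was scored from fresh callus weight gain after four weeks, with five replicates and the test run at least twice.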

The values that follow come from patent US7745450B2, “Pyrazolo[4,3-d]pyrimidines, processes for their preparation and methods for therapy” (Institute of Experimental Botany, priority 2002, dated 2010).

Consider “5-(3-aminopropylamino)-7-benzylamino-3-isopropylpyrazolo[4,3-d]pyrimidine [Compound 17]”, for which the “Inhibition of tobacco callus growth” value was “inhibitory effect”.
